According to US8172395B2, “Medical devices having antimicrobial coatings thereon” (priority 2002, dated 2012):
Where no end group is shown, it is not given here.

Columns and labels:
[1] = tested on: L929 mammalian fibroblasts; assay: Cytotoxicity, USP Elution Test (MEM elution); details: 5, 0.5 and 0.05 μg/ml; 25% test solution in medium; L929 cells examined after 48 hours
Description: Cytotoxicity of Cecropin A melittin hybrid is evaluated according to the USP Elution Test (“Biological Reactivity Tests, In-Vitro: Elution Test”, The United States Pharmacopeial Convention, Inc.). Cell cultures, L929 mammalian fibroblasts (ATCC cell line CCL1, NCTC clone 929), are grown to a near confluent monolayer in 6 well plates (individual wells are 35 mm diameter). […] The serum-supplemented cell culture medium is prepared by mixing 1000 mL Eagle's sterile minimum essential medium (MEM), 100 mL serum, 10 ml L-glutamine solution and antibiotic-antimycotic solution.

[2] = tested on: P. aeruginosa GSU #3 (corneal isolate); format: cell-based, Pseudomnas aeruginosa; details: 37° C., 24 h; tested 1-20 μg/ml
Description: (§1) Two (2) peptides, Cecropin P1 and Cecropin A-melittin hybrid, from American Peptides Company, Inc. are tested against strains of Pseudomnas aeruginosa GSU # 3 (corneal isolate) and # 9027 (a Gram negative organism), Staphylococcus aureus #6538, and Staphylococcus epidermidis # 17917. The first two strains are Gram negative organisms. The last two strains are Gram positive organisms. These organisms are chosen because they are the most common etiological agents causing infection in the eye. The peptides are kept at −70° C. until they are ready to be used. The peptide concentrations tested are 20, 16, 8, 4, 2 and 1 μg/ml in Delbeco's Phosphate Buffered Saline (PBS).
(§2) The bacteria are harvested, washed twice and adjusted to an O.D. of 10^8 cells/ml. Cells then are serially diluted and adjusted to about 5×10^5 cfu/ml. The cells are inoculated into microtiter plates containing serially decreasing peptide concentrations. The inoculum for the bacterial strains are suspended in Mueller Hinton broth, and the final volume in each well is 200 μl. The microtiter plates are incubated at 37° C. for 24 h. The growth is checked as optical density spectrophotometrically in a microtiter plate reader. The O.D. is compared to the blank and to the growth well to determine the MIC. […]

[3] = tested on: P. aeruginosa (PA) (ATCC# 19660); assay: Mouse organ culture model: adherence of P. aeruginosa to scarified mouse cornea; details: PA pre-incubated 1 h, PBS control 42.4
Description: Using the mouse organ culture model, this assay assesses the ability of a compound to inhibit the binding of P. aeruginosa to scarified eyes. Cecropin A melittin hybrid has been tested at three concentrations: 10, 2, and 0.5 μg/ml.
The solutions are tested for their ability to prevent adherence of P. aeruginosa (PA) (ATCC# 19660) to scarified mouse cornea. For these studies 1×10^7 cfu of PA is combined with each of the solutions at each concentration and incubated for 1 h at room temperature. In addition, 1×10^7 cfu of PA are incubated in PBS for 1 h at room temperature as a control. Following this incubation period, the PA are washed twice to remove the peptide solutions. For each washing step, the cultures are centrifuged at 6,000 rpm for 10 min and pellets are resuspended in 1.0 ml of PBS.
Mouse corneas are scarified under a stereoscopic microscope at 40× magnification. The corneal surface of the eyes is incised with three parallel one-mm wounds. The eyes are then enucleated and placed into sterile culture wells containing 2 ml of MEM.
A 5.0 μl aliquot of each bacterial suspension is delivered onto the surface of the cornea. Eyes are routinely incubated in vitro for 1 h at 37° C. at 95% O2 (5% CO2) after bacterial application. Scanning electron microscopy (SEM) is used to quantitate adherent bacteria.
To determine the efficacy of the peptide, the numbers of bacteria at each concentration is compared from 2 separate identical experiments to the PBS control, p≦0.05 is considered significant. There is a slight reduction at 0.5 μg, but significant difference in adherence at 2 and 10 μg from the control. The values for the bacteria adhered at 0.5 μg is 42.4 and 32.6 for the PBS control and the peptide solution respectively. At 2 μg, it is 42.4 and 15.8 for the PBS control and the peptide solution respectively. At 10 μg, it is 42.4 and 5.8 for the PBS control and the peptide solution respectively.

S. epidermidis #17917 = assay: MIC of peptides in Mueller Hinton broth, microtiter plates; format: cell-based, Staphylococcus epidermidis; details: 37° C., 24 h; tested 1-20 μg/ml
Description: as §1, §2

S. aureus #6538 = assay: as above; format: cell-based, Staphylococcus aureus; details: 37° C., 24 h; tested 1-20 μg/ml
Description: as §1, §2

Compound | Cytotoxicity (MEM elution test) [1] | Minimal inhibition concentration, P. aeruginosa GSU #3 [2] [μg/ml^1 μg/mL] | bacteria adhered (SEM count) ([3]; 0.5 μg/ml peptide) | bacteria adhered (SEM count) ([3]; 2 μg/ml peptide) | bacteria adhered (SEM count) ([3]; 10 μg/ml peptide) | Minimal inhibition concentration, S. epidermidis #17917 (S. epidermidis #17917) [μg/ml^1 μg/mL] | Minimal inhibition concentration, S. aureus #6538 (S. aureus #6538) [μg/ml^1 μg/mL]
CC[C@H](C)[C@H](N)C(=O)N[C@@H](CC(C)C)C(=O)N1CCC[C@H]1C(=O)N[C@@H](Cc1c[nH]c2ccccc12)C(=O)N[C@@H](CCCCN)C(=O)N[C@@H](Cc1c[nH]c2ccccc12)C(=O)N1CCC[C@H]1C(=O)N[C@@H](Cc1c[nH]c2ccccc12)C(=O)N[C@@H](Cc1c[nH]c2ccccc12)C(=O)N1CCC[C@H]1C(=O)N[C@@H](Cc1c[nH]c2ccccc12)C(=O)N[C@@H](CCCN=C(N)N)C(=O)N[C@@H](CCCN=C(N)N)C(N)=O [Indolicidin] | non-cytotoxic |  |  |  |  |  | 
KWKLFKKIGAVLKVL-NH2 (C-terminus assumed) [Cecropin A Melittin Hybrid] | non-cytotoxic | >20 | 32.6 | 15.8 | 5.8 |  | 
SWLSKTAKKLENSAKKRISEGIAIAIQGGPR [Cecropin P1] |  |  |  |  |  | >20 | >20
